# In patent US11963962B2, “Platelet count-agnostic methods of treating myelofibrosis” (Sierra Oncology, Inc., priority 2018, dated 2024):
# Assays:
# [1] = test system: myelofibrosis; assay: SIMPLIFY-1 Phase 3 trial: safety (anemia, platelet counts, hemoglobin); assay type: in vivo, human
# Procedure: In the SIMPLIFY-1 trial (NCT01969838), the efficacy and safety of MMB versus ruxolitinib (RUX) was studied in patients with myelofibrosis who were naïve to treatment with a JAK inhibitor and a platelet count of ≥50×10^9/L. Patients (N=432) with high risk or intermediate-2 risk or symptomatic intermediate-1 risk myelofibrosis received 24 weeks of treatment with 200 mg MMB once daily or 20 mg RUX twice a day (or per label), after which all patients could receive open-label momelotinib. […] The primary endpoint was a reduction by at least 35% in the spleen volume at 24 weeks compared with baseline.
# The mean platelet count for RUX patients is demonstrably lower than the mean platelet count for MMB patients.
# The MMB subjects were thus at lower risk of developing thrombocytopenia (e.g., Grade 3 or 4 thrombocytopenia), or of having to undergo undesirable dose reduction because they were able to largely maintain their platelet counts during therapy.
# [2] = test system: myelofibrosis; assay: SIMPLIFY-2 Phase 3 trial: transfusion independence and TD to TI conversion; assay type: in vivo, human; settings: for TD to 12w rolling TI Absolute risk difference (Newcombe 95% CI) / TD to W24 TI Absolute risk difference (Newcombe 95% CI) / TI rate Absolute risk difference (Newcombe 95% CI): MMB vs Control
# Text: The improved outcome from MMB therapy that results from practicing the subject methods can be manifested as an improvement in one or more clinical endpoints (e.g., as described herein), such as anemia response, in spleen response and/or symptom response. By “anemia response” is meant an increase in the patient's hemoglobin level or a patient who was transfusion dependent becoming transfusion independent. Desirably, a minimum increase in hemoglobin of 0.5 g/dL, such as 1.0 g/dL 1.5 g/dL or 2.0 g/dL lasting a minimum of 8 weeks is achieved, which is the level of improvement specified in the International Working Group (IWG) consensus criteria. However, smaller, but still medically significant, increases in hemoglobin are also considered to be within the term “anemia response”. “Transfusion independence” is an anemia endpoint and refers to a subject who required no RBC transfusions over a 12 week period and had no hemoglobin levels less than 8 g/dL to 8.5 g/dL over the 12 week period. In some embodiments, the 12 week period of transfusion independence is the terminal 12 weeks of a 24 week study period. By red blood cell (RBC) transfusion independence rate at week 24 of a study is meant the proportion of subjects who were transfusion independent at week 24, excluding cases associated with clinically overt bleeding.
# In the SIMPLIFY-2 trial (NCT02101268), the efficacy and safety of MMB was studied in anemic or thrombocytopenic subjects with myelofibrosis who were previously treated with ruxolitinib (RUX). […] Specifically, anemic or thrombocytopenic myelofibrosis patients who had and were previously treated with (RUX) (for at least 28 days) were studied over 24 weeks for response to MMB versus best available treatment (BAT), primarily RUX (89% of patients) but alternatively no treatment or other standard interventions, after which period all patients could receive extended MMB treatment. Previously treated RUX patients who either required red blood cell transfusions or RUX dose reduction with grade 3 thrombocytopenia, anemia, and/or bleeding at grade 3 or worse, with palpable spleen of at least 5 cm and without grade 2 or greater peripheral neuropathy were included in the trial. There was no lower limit for the required baseline platelet count. The primary endpoint was a reduction by at least 35% in the spleen volume at 24 weeks compared with baseline.
# FIG. 8A: SIMPLIFY-1 study of MMB in a first line population previously untreated with JAKi. For SIMPLIFY-1, the goal was non-inferiority over ruxolitinib (RUX) (MMB: N=215 subjects, and RUX: N=217 subjects). FIG. 8B: SIMPLIFY-2 study of second line population of anemic or thrombocytopenic subjects previously treated with RUX (red blood cell (RBC) transfusions on RUX=64%. RUX dose adjustment for: thrombocytopenia=21%; anemia/hematoma=35%). For SIMPLIFY-2, the goal was superiority over best available treatment (BAT) (MMB: N=104 subjects, and BAT: N=52 subjects). In both SIMPLIFY-1 and SIMPLIFY: Primary endpoint: >=35% reduction in spleen volume at 24 weeks. Secondary endpoints: Total symptom score (TSS) response at 24 weeks. Effects on RBC transfusion requirements.
# The SIMPLIFY 2 clinical trial data was reanalyzed for subgroups of subjects having particular baseline platelet counts in the MMB versus BAT arms of the study.
# Patient data was analyzed according to the following baseline platelet count (PLT) subgroups and in particular according to a threshold PLT of 150×10^9/L: 1) PLT<50×10^9/L; 2) 50×10^9/L≤PLT<100×10^9/L; 3) 100×10^9/L≤PLT<150×10^9/L. The reanalyzed data is presented in Table 14 (SIMPLIFY 2).
# [3] = SIMPLIFY 2, 50 ≤ PLT < 100 ×10^9/L
# [4] = SIMPLIFY 2, 100 ≤ PLT < 150 ×10^9/L
# [5] = SIMPLIFY-2, switch from Transfusion Dependent to Independent
compound,measurement,setting,value
"Cl.N#CCNC(=O)c1ccc(-c2ccnc(Nc3ccc(N4CCOCC4)cc3)n2)cc1 [MMB, N-(cyanomethyl)-4-(2-(4-morpholinophenylamino)pyrimidin-4-yl)benzamide]",anemia rate,[1]; SIMPLIFY 1,14%
same,≥Grade 3 anemia rate,[1]; SIMPLIFY 1,6%
same,platelet counts during treatment,"[1]; SIMPLIFY 1, 24 week double blind phase, FIGS. 31-33",able to maintain platelet levels
same,hemoglobin change,"[1]; SIMPLIFY 1, after initiating MMB, FIG. 10",rapid and sustained hemoglobin improvement
same,patients TI at week 24,[2]; SIMPLIFY 2,43%
same,transfusion dependent (TD) patients at baseline who were TI at week 24,[2]; SIMPLIFY 2,32.8%
same,TD to 12w rolling TI Responders,[2]; [3],7
same,TD to 12w rolling TI proportion (Wilson 95% CI),[2]; [3],0.54
same,TD to W24 TI Responders,[2]; [3],6
same,TD to W24 TI proportion (Wilson 95% CI),[2]; [3],0.46
same,TI rate Responders,[2]; [3],18
same,TI rate proportion (Wilson 95% CI),[2]; [3],0.55
same,TD to 12w rolling TI Absolute risk difference (Newcombe 95% CI),[2]; [3],0.27
same,TD to W24 TI Absolute risk difference (Newcombe 95% CI),[2]; [3],0.37
same,TI rate Absolute risk difference (Newcombe 95% CI),[2]; [3],0.15
same,TD to 12w rolling TI Responders,[2]; [4],3
same,TD to 12w rolling TI proportion (Wilson 95% CI),[2]; [4],0.23
same,TD to W24 TI Responders,[2]; [4],4
same,TD to W24 TI proportion (Wilson 95% CI),[2]; [4],0.31
same,TI rate Responders,[2]; [4],10
same,TI rate proportion (Wilson 95% CI),[2]; [4],0.42
same,TD to 12w rolling TI Absolute risk difference (Newcombe 95% CI),[2]; [4],0.03
same,TD to W24 TI Absolute risk difference (Newcombe 95% CI),[2]; [4],0.31
same,TI rate Absolute risk difference (Newcombe 95% CI),[2]; [4],0.42
same,TD to 12w rolling TI Responders,"[2]; SIMPLIFY 2, ITT",24
same,TD to 12w rolling TI proportion (Wilson 95% CI),"[2]; SIMPLIFY 2, ITT",0.41
same,TD to W24 TI Responders,"[2]; SIMPLIFY 2, ITT",19
same,TD to W24 TI proportion (Wilson 95% CI),"[2]; SIMPLIFY 2, ITT",0.33
same,TI rate Responders,"[2]; SIMPLIFY 2, ITT",45
same,TI rate proportion (Wilson 95% CI),"[2]; SIMPLIFY 2, ITT",0.43
same,TD to 12w rolling TI Absolute risk difference (Newcombe 95% CI),"[2]; SIMPLIFY 2, ITT",0.23
same,TD to W24 TI Absolute risk difference (Newcombe 95% CI),"[2]; SIMPLIFY 2, ITT",0.29
same,TI rate Absolute risk difference (Newcombe 95% CI),"[2]; SIMPLIFY 2, ITT",0.22
same,TD to 12w rolling TI Responders,"[2]; SIMPLIFY 2, PLT < 50 ×10^9/L",3
same,TD to 12w rolling TI proportion (Wilson 95% CI),"[2]; SIMPLIFY 2, PLT < 50 ×10^9/L",0.50
same,TD to W24 TI Responders,"[2]; SIMPLIFY 2, PLT < 50 ×10^9/L",2
same,TD to W24 TI proportion (Wilson 95% CI),"[2]; SIMPLIFY 2, PLT < 50 ×10^9/L",0.33
same,TI rate Responders,"[2]; SIMPLIFY 2, PLT < 50 ×10^9/L",2
same,TI rate proportion (Wilson 95% CI),"[2]; SIMPLIFY 2, PLT < 50 ×10^9/L",0.22
same,TD to 12w rolling TI Absolute risk difference (Newcombe 95% CI),"[2]; SIMPLIFY 2, PLT < 50 ×10^9/L",0.50
same,TD to W24 TI Absolute risk difference (Newcombe 95% CI),"[2]; SIMPLIFY 2, PLT < 50 ×10^9/L",0.33
same,TI rate Absolute risk difference (Newcombe 95% CI),"[2]; SIMPLIFY 2, PLT < 50 ×10^9/L",0.22
same,transfusion dependence to independence conversion rate at week 24,"[2]; SIMPLIFY 2, baseline platelet count subgroup 3 (100 to 150×10^9/L)",46%
same,≥8 week transfusion independence rate,[2]; [5],46.6%
same,≥12 week transfusion independence rate,[2]; [5],46.6%
